The test system of assay [1] is primary human mesenchymal stem cells (hMSCs). Kind of assay: Chondrogenesis induction in hMSCs (nodule count, Rhodamine B/Nile Red). To be noted: 144 h, 6 days; for EC50: concentration required to induce 50% levels of chondrogenesis vs TGF-β3, read-out: Conc (nM) of 50% TGF-β3 activity; for Emax: relative to TGF-β3 (10 ng/mL) positive control, read-out: Max. Activity as % TGF-β3 activity. Type of assay: cell-based. The protocol: Representative compounds were screened using primary human mesenchymal stem cells (hMSCs) to determine their ability to induce chondrogenesis (process by which cartilage is developed).
Primary human mesenchymal stem cells (hMSCs) were purchased from Lonza (Walkersville, Md.) and expanded in Mesenchymal Stem Cell Growth Media (Lonza). Cells between passage 3 and 6 were used for the experiments.
Each compound was dissolved in DMSO as a 10 mM stock and used to prepare compound source plates. Serial dilution (1:3, 6-point dose-response curves from 2700 nM to 10 nM) and compound transfer was performed using the ECHO 550 (Labcyte, Sunnyvale, Calif.) into 96-well clear bottom assay plates (Greiner Bio-One) with appropriate DMSO backfill for a final DMSO concentration of 0.03%. hMSCs were plated at 20,000 cells/well in 250 μL/well Incomplete Chondrogenic Induction Medium (Lonza; DMEM, dexamethasone, ascorbate, insulin-transferrin-selenium [ITS supplement], gentamycin-amphotericin [GA-1000], sodium pyruvate, proline and L-glutamine). TGF-β3 (10 ng/mL) was used as a positive control for differentiation while negative control wells were treated with 75 nL DMSO for normalization and calculating EC50 values. Cells were incubated at 37° C. and 5% CO2 for 6 days. To image chondrogenic nodules, the cells were fixed using 4% formaldehyde (Electron Microscopy Sciences), and stained with 2 μg/mL Rhodamine B (Sigma-Aldrich) and 20 μM Nile Red (Sigma-Aldrich) [Johnson K., et. al, A Stem Cell-Based Approach to Cartilage Repair, Science, (2012), 336(6082), 717-721]. The nodules imaged (4 images per well at 4× magnification) by excitation at 531 nm and emission at 625 nm and quantified using the CellInsight CX5 (Thermo Scientific). Number of nodules in each well was normalized to the average of 3 DMSO treated wells on the same plate using Excel (Microsoft Inc.). The normalized averages (fold change over DMSO) of 3 replicate wells for each compound concentration were calculated. Due to solubility limitations of some of the compounds, curve fitting was incomplete leading to inaccurate EC50 determinations.
Using TGF-β3 as a positive control, the concentration of representative compounds required to induce 50% levels of chondrogenesis is reported. In addition, the maximum activity of each compound and the respective dose that each compound reached maximum chondrogenesis activity is reported.

Assay [2] has as its system Wnt activity (Sp5-Luc reporter, SW480 colon carcinoma cells). Nature of the assay: Wnt activity screening assay, Sp5-Luc reporter gene in SW480 cells. Format: cell-based. To be noted: Homo sapiens; for inhibition at 10 µM: given for EC50 >10 μM, read-out: percent inhibition at 10 μM; for pEC50: overnight incubation. In outline:
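SW480 colon carcinoma cells stably expressing firefly luciferase under a human Sp5 promoter (eight TCF/LEF sites), plated in 1% FBS medium. 10-point 1:3 dilutions from 10 μM, 0.1% DMSO final, overnight at 37 °C; luminescence normalized to DMSO, four-parameter fit for EC50, % inhibition at 10 μM if EC50 >10 μM.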
(In a reporter assay the amount or activity of a reporter protein is the signal.)

Structures are written as SMILES. pEC50: −log10 of the molar value.

In general, inhibition refers to the relative decrease from the control value, in per cent. What is called pEC50 is the EC50 on a negative log10 scale, so that one unit is a factor of ten. High values mean a low EC50, low ones a high EC50. For the compound `CN(C)Cc1cncc(-c2cnc3[nH]nc(-c4cc5c(-c6cccc(F)c6)ccnc5[nH]4)c3c2)c1` [Compound 13, 1-(5-(3-(4-(3-Fluorophenyl)-1H-pyrrolo[2,3-b]pyridin-2-yl)-1H-pyrazolo [3,4-b]pyridin-5-yl)pyridin-3-yl)-N,N-dimethylmethanamine], in assay [1], the EC50 was 100 nM and the Emax stood at 102%. In assay [2], the inhibition at 10 µM came to 22.6% and the pEC50 is less than 5.00.

As to `Cc1ccncc1-c1cnc2[nH]nc(-c3cc4c(-c5ccc(F)cc5)ccnc4[nH]3)c2c1` [Compound 33, 3-(4-(4-Fluorophenyl)-1H-pyrrolo[2,3-b]pyridin-2-yl)-5-(4-methylpyridin-3-yl)-1H-pyrazolo[3,4-b]pyridine], in assay [1], the EC50 amounted to 900 nM and the Emax worked out at 108%. In assay [2], the inhibition at 10 µM came out at 2.7% and the pEC50 was less than 5.00.

Take `Fc1ccc(-c2ccnc3[nH]c(-c4n[nH]c5ncc(-c6cncc(CN7CCCC7)c6)cc45)cc23)cc1` [Compound 42, 3-(4-(4-Fluorophenyl)-1H-pyrrolo[2,3-b]pyridin-2-yl)-5-(5-(pyrrolidin-1-ylmethyl)pyridin-3-yl)-1H-pyrazolo[3,4-b]pyridine]: the Emax in assay [1] amounted to 25%. In addition, in assay [2], the inhibition at 10 µM stood at 26% and the pEC50 is less than 5.00.

With `Nc1cncc(-c2cnc3[nH]nc(-c4cc5c(-c6ccccc6F)ccnc5[nH]4)c3c2)c1` [Compound 59, 5-(3-(4-(2-Fluorophenyl)-1H-pyrrolo[2,3-b]pyridin-2-yl)-1H-pyrazolo[3,4-b]pyridin-5-yl)pyridin-3-amine], the Emax in assay [1] amounted to 28%. Moreover, in assay [2], the inhibition at 10 µM turned out to be 48.3% and the pEC50 was less than 5.00.

In the case of `CCNCc1cncc(-c2cnc3[nH]nc(-c4cc5c(-c6ccccc6F)ccnc5[nH]4)c3c2)c1` [Compound 62, N-((5-(3-(4-(2-Fluorophenyl)-1H-pyrrolo[2,3-b]pyridin-2-yl)-1H-pyrazolo [3,4-b]pyridin-5-yl)pyridin-3-yl)methyl)ethanamine], in assay [1], the EC50 was determined as 100 nM and the Emax is 55%. Also, in assay [2], the inhibition at 10 µM is 0% and the pEC50 is less than 5.00.

On to `CN(C)c1cncc(-c2cnc3[nH]nc(-c4cc5c(-c6ccccc6F)ccnc5[nH]4)c3c2)c1` [Compound 63, 5-(3-(4-(2-Fluorophenyl)-1H-pyrrolo[2,3-b]pyridin-2-yl)-1H-pyrazolo[3,4-b]pyridin-5-yl)-N,N-dimethylpyridin-3-amine], for which, in assay [1], the Emax amounted to 35%. Further, in assay [2], the inhibition at 10 µM came out at 4% and the pEC50 was less than 5.00.

For `CC(C)Nc1cncc(-c2cnc3[nH]nc(-c4cc5c(-c6ccccc6F)ccnc5[nH]4)c3c2)c1` [Compound 68, 5-(3-(4-(2-Fluorophenyl)-1H-pyrrolo[2,3-b]pyridin-2-yl)-1H-pyrazolo[3,4-b]pyridin-5-yl)-N-isopropylpyridin-3-amine], in assay [1], the EC50 amounted to 10 nM and the Emax is 82%. In assay [2], the inhibition at 10 µM amounted to 4.6% and the pEC50 was less than 5.00.

In the case of `CCCCC(=O)Nc1cncc(-c2cnc3[nH]nc(-c4cc5c(-c6ccccc6F)ccnc5[nH]4)c3c2)c1` [Compound 75, N-(5-(3-(4-(2-Fluorophenyl)-1H-pyrrolo[2,3-b]pyridin-2-yl)-1H-pyrazolo [3,4-b]pyridin-5-yl)pyridin-3-yl)pentanamide], in assay [1], the EC50 was 30 nM and the Emax was found to be 82%. In addition, in assay [2], the inhibition at 10 µM is 2.1% and the pEC50 is less than 5.00.

On to `CC(C)CC(=O)Nc1cncc(-c2cnc3[nH]nc(-c4cc5c(-c6cccnc6)ccnc5[nH]4)c3c2)c1` [Compound 86, 3-Methyl-N-(5-(3-(4-(pyridin-3-yl)-1H-pyrrolo[2,3-b]pyridin-2-yl)-1H-pyrazolo[3,4-b]pyridin-5-yl)pyridin-3-yl)butanamide], for which, in assay [1], the Emax is 44%. In addition, in assay [2], the inhibition at 10 µM was 2.7% and the pEC50 was less than 5.00.

With `CCNCc1cncc(-c2cnc3[nH]nc(-c4cc5c(-c6cccnc6)ccnc5[nH]4)c3c2)c1` [Compound 90, N-((5-(3-(4-(Pyridin-3-yl)-1H-pyrrolo[2,3-b]pyridin-2-yl)-1H-pyrazolo[3,4-b]pyridin-5-yl)pyridin-3-yl)methyl)ethanamine], in assay [1], the EC50 was 10 nM and the Emax came to 92%. Further, in assay [2], the inhibition at 10 µM was determined as 8.2% and the pEC50 was less than 5.00.

On to `CN(C)Cc1cncc(-c2cnc3[nH]nc(-c4cc5c(-c6cccnc6)ccnc5[nH]4)c3c2)c1` [Compound 97, N,N-Dimethyl-1-(5-(3-(4-(pyridin-3-yl)-1H-pyrrolo[2,3-b]pyridin-2-yl)-1H-pyrazolo[3,4-b]pyridin-5-yl)pyridin-3-yl)methanamine], for which the Emax in assay [1] was determined as 49%. In addition, in assay [2], the inhibition at 10 µM was 0% and the pEC50 was less than 5.00.

As to `c1cncc(-c2ccnc3[nH]c(-c4n[nH]c5ncc(-c6cncc(CN7CCCCC7)c6)cc45)cc23)c1` [Compound 99, 5-(5-(Piperidin-1-ylmethyl)pyridin-3-yl)-3-(4-(pyridin-3-yl)-1H-pyrrolo[2,3-b]pyridin-2-yl)-1H-pyrazolo[3,4-b]pyridine], in assay [1], the Emax worked out at 44%. For the same compound, in assay [2], the inhibition at 10 µM was determined as 26% and the pEC50 is less than 5.00.

In the case of `Nc1cncc(-c2cnc3[nH]nc(-c4cc5c(-c6ccncc6)ccnc5[nH]4)c3c2)c1` [Compound 115, 5-(3-(4-(Pyridin-4-yl)-1H-pyrrolo[2,3-b]pyridin-2-yl)-1H-pyrazolo[3,4-b]pyridin-5-yl)pyridin-3-amine], the Emax in assay [1] amounted to 12%. In addition, in assay [2], the inhibition at 10 µM is 5.6% and the pEC50 is less than 5.00.

For the compound `CN(C)CCNc1cc(F)cc(-c2ccnc3[nH]c(-c4n[nH]c5ncc(-c6cncc(NC(=O)C7CCC7)c6)cc45)cc23)c1` [Compound 469, N-(5-(3-(4-(3-((2-(Dimethylamino)ethyl)amino)-5-fluorophenyl)-1H-pyrrolo [2,3-b]pyridin-2-yl)-1H-pyrazolo[3,4-b]pyridin-5-yl)pyridin-3-yl)cyclobutanecarboxamide], in assay [2], the inhibition at 10 µM worked out at 47.5% and the pEC50 was less than 5.00.

For the compound `Fc1cccc(-c2ccnc3[nH]c(-c4n[nH]c5ncc(-c6cncc(OCc7ccccc7)c6)cc45)cc23)c1` [Compound 518, 5-(5-(Benzyloxy)pyridin-3-yl)-3-(4-(3-fluorophenyl)-1H-pyrrolo[2,3-b]pyridin-2-yl)-1H-pyrazolo[3,4-b]pyridine], in assay [2], the inhibition at 10 µM worked out at 0% and the negative logarithm of the EC50 (pEC50) is less than 5.00.

`Oc1cncc(-c2cnc3[nH]nc(-c4cc5c(-c6ccc(F)cc6)ccnc5[nH]4)c3c2)c1` [Compound 533, 5-(3-(4-(4-Fluorophenyl)-1H-pyrrolo[2,3-b]pyridin-2-yl)-1H-pyrazolo[3,4-b]pyridin-5-yl)pyridin-3-ol]: in assay [2], the inhibition at 10 µM worked out at 3.4% and the pEC50 was less than 5.00.

For `CN(C)CCOc1cncc(-c2cnc3[nH]nc(-c4cc5c(-c6cccnc6)ccnc5[nH]4)c3c2)c1` [Compound 563, N,N-dimethyl-2-((5-(3-(4-(pyridin-3-yl)-1H-pyrrolo[2,3-b]pyridin-2-yl)-1H-pyrazolo[3,4-b]pyridin-5-yl)pyridin-3-yl)oxy)ethan-1-amine], in assay [2], the inhibition at 10 µM was 20.6% and the pEC50 was less than 5.00.

On to `c1csc(-c2ccnc3[nH]c(-c4n[nH]c5ncc(-c6cncc(OC7CCCCC7)c6)cc45)cc23)c1` [Compound 703, 5-(5-(Cyclohexyloxy)pyridin-3-yl)-3-(4-(thiophen-2-yl)-1H-pyrrolo[2,3-b]pyridin-2-yl)-1H-pyrazolo[3,4-b]pyridine], for which, in assay [2], the inhibition at 10 µM stood at 38.6% and the pEC50 was less than 5.00.

`Cc1ncc(-c2cnc3[nH]nc(-c4cc5c(-c6cc(F)cc(NCCN(C)C)c6)ccnc5[nH]4)c3c2)n1C` [Compound 781, N^1-(3-(2-(5-(1,2-Dimethyl-1H-imidazol-5-yl)-1H-pyrazolo[3,4-b]pyridin-3-yl)-1H-pyrrolo[2,3-b]pyridin-4-yl)-5-fluorophenyl)-N^2,N^2-dimethylethane-1,2-diamine]: the pEC50 in assay [2] is 5.35.

Values taken from patent US10285983B2, “3-(1H-pyrrolo[2,3-B]pyridin-2-yl)-1H-pyrazolo[3,4-B] pyridines and therapeutic uses thereof” (Samumed, LLC, priority 2015, dated 2019).
